# Laboratory results reported in ChEMBL document CHEMBL5729469, “Compounds for treating ILK-mediated diseases” (2022).
# Molecular target: Epidermal growth factor receptor (Homo sapiens, UniProt P00533)
# Assay: Biochemical Assay: Thus, while these compounds were extensively used in studying ILK-mediated cellular and disease processes, their reported inhibitory effects are probably due to unknown artifacts or indirect binding events. Next, we turned our attention to previously reported studies on kinase profiling and quantitative chemical proteomics. These studies suggested that a widely known lung …
# Epidermal growth factor receptor, sequence (P00533 whole entry): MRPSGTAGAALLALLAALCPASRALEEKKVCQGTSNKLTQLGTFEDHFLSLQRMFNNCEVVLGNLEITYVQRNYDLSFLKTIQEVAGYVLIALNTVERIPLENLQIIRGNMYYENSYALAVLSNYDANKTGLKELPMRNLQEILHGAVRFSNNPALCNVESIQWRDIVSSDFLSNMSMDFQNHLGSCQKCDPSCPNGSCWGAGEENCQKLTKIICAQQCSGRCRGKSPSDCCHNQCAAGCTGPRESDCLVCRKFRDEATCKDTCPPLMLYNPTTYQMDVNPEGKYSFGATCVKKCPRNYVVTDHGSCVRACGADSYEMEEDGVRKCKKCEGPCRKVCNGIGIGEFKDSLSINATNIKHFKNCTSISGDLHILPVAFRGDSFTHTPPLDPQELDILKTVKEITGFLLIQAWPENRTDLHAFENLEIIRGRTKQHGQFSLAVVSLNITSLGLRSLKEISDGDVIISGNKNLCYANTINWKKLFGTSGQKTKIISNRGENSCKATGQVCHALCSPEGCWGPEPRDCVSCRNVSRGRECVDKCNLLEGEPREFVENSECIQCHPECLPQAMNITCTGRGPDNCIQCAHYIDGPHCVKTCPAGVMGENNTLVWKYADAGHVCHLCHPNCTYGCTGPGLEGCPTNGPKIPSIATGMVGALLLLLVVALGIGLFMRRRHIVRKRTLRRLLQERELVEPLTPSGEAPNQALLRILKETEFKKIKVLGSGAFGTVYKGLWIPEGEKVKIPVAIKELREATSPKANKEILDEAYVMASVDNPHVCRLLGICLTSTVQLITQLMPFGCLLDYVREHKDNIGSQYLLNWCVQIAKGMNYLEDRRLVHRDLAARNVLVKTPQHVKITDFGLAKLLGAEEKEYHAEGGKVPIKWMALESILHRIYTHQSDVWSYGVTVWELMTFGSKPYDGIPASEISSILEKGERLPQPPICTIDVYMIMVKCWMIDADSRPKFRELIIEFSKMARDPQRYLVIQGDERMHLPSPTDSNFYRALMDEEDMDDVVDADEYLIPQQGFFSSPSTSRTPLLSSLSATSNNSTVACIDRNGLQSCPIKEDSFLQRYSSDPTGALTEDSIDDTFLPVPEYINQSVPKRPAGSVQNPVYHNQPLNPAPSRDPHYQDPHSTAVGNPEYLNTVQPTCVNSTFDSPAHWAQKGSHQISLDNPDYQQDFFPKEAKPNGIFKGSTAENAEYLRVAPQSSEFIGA
row,SMILES,Kd
1,C#Cc1cc(Nc2ncnc3cc(OCCOC)ccc23)cc(OCCOCC)c1,17.7 µM
2,C#Cc1cc(C#C)cc(Nc2ncnc3cc(OC)c(OC)cc23)c1,1.15 µM
3,C#Cc1cc(Nc2ncnc3cc(OCCOC)c(OCCOC)cc23)ccc1C,0.745 µM
